# Laboratory results reported in BindingDB's records for patent US20250163061 (Bala Therapeutics, 2025).
# pEC50: −log10 of the molar value.
# Target: T1, Menin (Homo sapiens, UniProt O00255)
# T1 sequence (O00255 whole entry): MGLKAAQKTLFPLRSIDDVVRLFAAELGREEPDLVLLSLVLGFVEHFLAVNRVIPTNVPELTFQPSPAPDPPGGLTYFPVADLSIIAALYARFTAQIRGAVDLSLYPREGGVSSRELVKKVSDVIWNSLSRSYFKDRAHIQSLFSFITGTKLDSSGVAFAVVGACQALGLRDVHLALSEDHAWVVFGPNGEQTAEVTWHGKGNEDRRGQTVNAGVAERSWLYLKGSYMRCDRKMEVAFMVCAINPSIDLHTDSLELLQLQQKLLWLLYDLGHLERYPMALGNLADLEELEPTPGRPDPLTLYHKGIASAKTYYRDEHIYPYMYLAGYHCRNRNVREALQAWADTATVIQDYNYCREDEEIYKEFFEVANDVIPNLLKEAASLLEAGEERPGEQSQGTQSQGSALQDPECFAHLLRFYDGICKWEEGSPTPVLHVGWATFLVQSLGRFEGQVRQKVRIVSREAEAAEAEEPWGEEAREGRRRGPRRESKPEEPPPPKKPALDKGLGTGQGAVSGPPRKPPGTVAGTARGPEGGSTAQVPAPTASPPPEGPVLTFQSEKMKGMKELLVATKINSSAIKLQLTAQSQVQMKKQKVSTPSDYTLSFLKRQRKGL
# Test: Primary Assay Used to Determine Potency of MEN1 Activity Inhibition
# Protocol: Compound activity was determined using recombinant MEN1 protein (Creativebiomart, Cat #MEN1-35H) and a custom fluorescein-labeled MLL4-43 peptide (Eton Bioscience Inc.). Interaction between MEN1 and MLL4-43 in the presence of compounds was determined by fluorescence polarization assay using a Microplate Reader ClarioStar Plus. The reaction was carried out in assay buffer (50 mM TRIS-HCl pH 7.4-7.6, 50 mM NaCl, 1 mM DTT, 0.1 mg/ml BSA). The compounds were dispensed on a 384 well Diamond Well Plate (Axigen, Cat #P-384-120SQ-C-S) using the Biomek FX liquid handling system at 100× solutions of compounds in DMSO. 2×MEN1 mix (final concentration of MEN1 10 nM) was prepared in Assay buffer and 10 μl of mixture per well was added into 384 w white Reaction plate with NBS (Corning, Cat #4513). 10 μl of Assay buffer w/o MEN1 was used for negative control. Plates were centrifuged for 1 min at 100 g. Next step the Compounds were added to Reaction plate using Biomek station via following steps: 3 μl of 100× compounds (in DMSO) were mixed thoroughly with 27 μl Assay Buffer, then 2 μl of this mixture was added to Reaction plate with 10 μl of MEN1 mix. Plates were centrifuged for 1 min at 100 g and incubated for 20 min at room temperature. Next 8 μL of MLL4-43 peptide per well was added to final concentration of MLL 0.5 nM. Plates were incubated for 1 hour at room temperature. Then fluorescence polarization was measured using Microplate Reader.
row,SMILES,pEC50
1,"Cc1c(CN2CCC3(CC2)CN(c2ncnc4ccc(CC(F)(F)F)cc24)C3)ccc2c1cc(C#N)n2CC(C)N1CCN(S(C)(=O)=O)CC1 (centres undefined) [US20250163061, Compound 71]",> 7.12
2,"Cc1c(CN2CCC3(CC2)CN(c2ncnc4ccc(CC(F)(F)F)cc24)C3)ccc2c1cc(C#N)n2CC1CCC(=O)NC1 (centres undefined) [US20250163061, Compound 72]",> 7.12
3,"CCCCS(=O)(=O)N1CCCN(C(C)Cn2c(C#N)cc3c(C)c(CN4CCC5(CC4)CN(c4ncnc6ccc(CC(F)(F)F)cc46)C5)ccc32)CC1 (centres undefined) [US20250163061, Compound 73]",> 7.12
4,"Cc1c(CN2CCC3(CC2)CN(c2ncnc4ccc(C(F)(F)C(F)(F)F)cc24)C3)ccc2c1cc(C#N)n2C[C@H](C)N1CCN(S(C)(=O)=O)CC1 [US20250163061, Compound 75]",> 7.12
5,"CC(Cn1c(C#N)cc2c(F)c(CN3CCC4(CC3)CN(c3ncnc5ccc(CC(F)(F)F)cc35)C4)ccc21)N1CCN(S(C)(=O)=O)CC1 (centres undefined) [US20250163061, Compound 78]",6.30 to 7.12
6,"Cc1c(CN2CCC3(CC2)CN(c2nncc4ccc(CC(F)(F)F)cc24)C3)ccc2c1cc(C#N)n2CC(C)N1CCN(S(C)(=O)=O)CC1 (centres undefined) [US20250163061, Compound 79]",< 5.30
7,"Cc1cc(CN2CCC3(CC2)CN(c2ncnc4ccc(CC(F)(F)F)cc24)C3)cc2c1cc(C#N)n2CC(C)N1CCN(S(C)(=O)=O)CC1 (centres undefined) [US20250163061, Compound 83]",< 5.30
8,"C=CC(=O)N1CCN(CCn2c(C#N)cc3cc(CN4CCC5(CC4)CN(c4ncnc6ccc(CC(F)(F)F)cc46)C5)ccc32)CC1 [US20250163061, Compound 86]",6.30 to 7.12
9,"Cc1c(CN2CCC3(CC2)CN(c2ncnc4ccc(CC(F)(F)F)cc24)C3)ccc2c1cc(C#N)n2CC1CNC(=O)CCO1 (centres undefined) [US20250163061, Compound 87]",> 7.12

# Second part, the molecule after the results:
row,pEC50,SMILES
1,> 7.12,"Cc1c(CN2CCC3(CC2)CN(c2ncnc4ncc(CC(F)(F)F)cc24)C3)ccc2c1cc(C#N)n2CC(C)N1CCN(S(C)(=O)=O)CC1 (centres undefined) [US20250163061, Compound 89]"
2,> 7.12,"CS(=O)(=O)N1CCN(CCn2c(C#N)cc3cc(CN4CCC5(CC4)CN(c4ncnc6ccc(CC(F)(F)F)cc46)C5)ccc32)CC1 [US20250163061, Compound 91]"
3,> 7.12,"Cc1c(CN2CCC3(CC2)CN(c2ncnc4ccc(CC(F)(F)F)cc24)C3)ccc2c1cc(C#N)n2CC(C)N1CCNC(=O)C1 (centres undefined) [US20250163061, Compound 93]"
4,> 7.12,"Cc1c(CN2CCC3(CC2)CN(c2ncnc4ccc(CC(F)(F)F)cc24)C3)ccc2c1cc(C#N)n2CC12CC(NC=O)(C1)C2 [US20250163061, Compound 95]"
5,> 7.12,"Cc1c(CN2CCC3(CC2)CN(c2ncnc4ccc(CC(F)(F)F)cc24)C3)ccc2c1cc(C#N)n2CCN1CCOCC1 [US20250163061, Compound 97]"
6,> 7.12,"CN(C)C/C=C/C(=O)N1CCN(CCn2c(C#N)cc3cc(CN4CCC5(CC4)CN(c4ncnc6ccc(CC(F)(F)F)cc46)C5)ccc32)CC1 [US20250163061, Compound 99]"
7,> 7.12,"Cc1c(CN2CCC3(CC2)CN(c2ncnc4ccc(CC(F)(F)F)cc24)C3)ccc2c1cc(C#N)n2C[C@H]1CNC(=O)CO1 [US20250163061, Compound 101]"
8,> 7.12,"Cc1c(CN2CCC3(CC2)CN(c2ncnc4ccc(CC(F)(F)F)cc24)C3)ccc2c1cc(C#N)n2C[C@@H]1CNC(=O)CO1 [US20250163061, Compound 102]"
9,> 7.12,"CCN1CC(Cn2c(C#N)cc3c(C)c(CN4CCC5(CC4)CN(c4ncnc6ccc(CC(F)(F)F)cc46)C5)ccc32)OCC1=O (centres undefined) [US20250163061, Compound 104]"
10,6.00 to 6.30,"Cc1c(CN2CCC3(CC2)CN(c2nc(=O)[nH]c4ccc(CC(F)(F)F)cc24)C3)ccc2c1cc(C#N)n2C[C@@H]1CNC(=O)CO1 [US20250163061, Compound 105]"
